Assay [1] concerns the target T1, Aldo-keto reductase family 1 member C4 (Homo sapiens, UniProt P17516).
T1 sequence (P17516 whole entry): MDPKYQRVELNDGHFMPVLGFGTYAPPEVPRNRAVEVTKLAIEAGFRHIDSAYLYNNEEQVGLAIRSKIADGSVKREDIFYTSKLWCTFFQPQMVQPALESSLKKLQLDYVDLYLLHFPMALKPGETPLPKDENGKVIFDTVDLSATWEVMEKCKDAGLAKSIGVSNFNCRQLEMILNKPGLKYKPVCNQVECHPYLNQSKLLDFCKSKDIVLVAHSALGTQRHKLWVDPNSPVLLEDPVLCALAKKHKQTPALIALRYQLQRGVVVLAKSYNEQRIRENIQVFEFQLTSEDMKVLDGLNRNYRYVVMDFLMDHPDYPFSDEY
The experiment in a line: Inhibition of human recombinant AKR1C4.

Assay [2] has as its target T2, Aldo-keto reductase family 1 member C3 (Homo sapiens, UniProt P42330).
T2 sequence (P42330 whole entry): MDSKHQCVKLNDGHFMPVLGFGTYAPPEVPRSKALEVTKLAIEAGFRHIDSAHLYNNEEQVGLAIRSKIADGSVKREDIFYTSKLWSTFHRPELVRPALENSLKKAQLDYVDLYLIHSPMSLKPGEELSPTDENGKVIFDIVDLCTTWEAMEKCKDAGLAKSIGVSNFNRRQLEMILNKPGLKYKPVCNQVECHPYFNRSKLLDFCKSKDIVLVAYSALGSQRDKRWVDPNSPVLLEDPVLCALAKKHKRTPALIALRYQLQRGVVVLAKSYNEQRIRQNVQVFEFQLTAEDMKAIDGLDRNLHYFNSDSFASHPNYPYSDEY
The experiment in a line: Inhibition of human recombinant AKR1C3.

For one compound, Ki results are on record in ChEMBL document CHEMBL1155846, “Selectivity determinants of inhibitor binding to human 20alpha-hydroxysteroid dehydrogenase: crystal structure of the enzyme in ternary complex with coenzyme and the potent inhibitor 3,5-dichlorosalicylic acid” (J Med Chem, 2008).

Each structure is given as a SMILES string.

The Ki is the dissociation constant of the complex between target and ligand, obtained from inhibition or displacement. Regarding `O=C(O)c1cc(Cl)cc(Cl)c1O`, the figures for the Ki in assay [1] and in assay [2] were 24 µM and 94 µM, respectively.
